From ChEMBL document CHEMBL3045468, “I2 catalyzed FriedelCrafts alkylation reaction of substituted anilines with ninhydrin: formation of novel products and their antimicrobial evaluation” (2013)
Values after ≈ are worked out from the molar mass of the structure shown. Active and inactive are the calls of the source. The rule behind the calls is not given here.

What was measured:
[1] = system: Pseudomonas aeruginosa; experiment: Antibacterial activity against Pseudomonas aeruginosa 71 clinical isolate assessed as growth inhibition at 1 mg/ml after 24 hr by NCCLS agar diffusion method; assay type: functional
[2] = system: Bacillus pumilus; experiment: Antibacterial activity against Bacillus pumilus 11778 clinical isolate assessed as growth inhibition at 1 mg/ml after 24 hr by NCCLS agar diffusion method; assay type: functional; conditions: for zone of inhibition at 1000 µg/mL: Bacillus pumilus, 11778, 24 h, read-out: DIZ
[3] = system: Escherichia coli; experiment: Antibacterial activity against Escherichia coli 319 clinical isolate assessed as growth inhibition at 1 mg/ml after 24 hr by NCCLS agar diffusion method; assay type: functional; conditions: for zone of inhibition at 1000 µg/mL: Escherichia coli, 319, 24 h, read-out: DIZ
[4] = system: Micrococcus luteus; experiment: Antibacterial activity against Micrococcus luteus ATCC 9341 clinical isolate assessed as growth inhibition at 1 mg/ml after 24 hr by NCCLS agar diffusion method; assay type: functional
[5] = system: Shigella dysenteriae; experiment: Antibacterial activity against Shigella dysenteriae 15 clinical isolate assessed as growth inhibition at 1 mg/ml after 24 hr by NCCLS agar diffusion method; assay type: functional; conditions: for zone of inhibition at 1000 µg/mL: Shigella dysenteriae, 15, 24 h, read-out: DIZ
[6] = system: Staphylococcus aureus; experiment: Antibacterial activity against Staphylococcus aureus 29737 clinical isolate assessed as growth inhibition at 1 mg/ml after 24 hr by NCCLS agar diffusion method; assay type: functional
[7] = system: Klebsiella pneumoniae; experiment: Antibacterial activity against Klebsiella pneumoniae J/I/4 clinical isolate assessed as growth inhibition at 1 mg/ml after 24 hr by NCCLS agar diffusion method; assay type: functional; conditions: for zone of inhibition at 1000 µg/mL: J/I/4, 24 h, read-out: DIZ
[8] = system: Vibrio cholerae; experiment: Antibacterial activity against Vibrio cholerae 759 clinical isolate assessed as growth inhibition at 1 mg/ml after 24 hr by NCCLS agar diffusion method; assay type: functional; conditions: for zone of inhibition at 1000 µg/mL: Vibrio cholerae, 759, 24 h, read-out: DIZ
[9] = system: Cryptococcus neoformans; experiment: Antifungal activity against Cryptococcus neoformans clinical isolate assessed as growth inhibition at 1 mg/ml after 96 hr by NCCLS agar diffusion method; assay type: functional; conditions: read-out: DIZ
[10] = system: Aspergillus niger; experiment: Antifungal activity against Aspergillus niger clinical isolate assessed as growth inhibition at 1 mg/ml after 96 hr by NCCLS agar diffusion method; assay type: functional; conditions: read-out: DIZ
[11] = system: Candida tropicalis; experiment: Antifungal activity against Candida tropicalis clinical isolate assessed as growth inhibition after 96 hr by agar dilution method; assay type: functional
[12] = system: Aspergillus niger; experiment: Antifungal activity against Aspergillus niger clinical isolate assessed as growth inhibition after 96 hr by agar dilution method; assay type: functional
[13] = system: Klebsiella pneumoniae; experiment: Antibacterial activity against Klebsiella pneumoniae J/I/4 clinical isolate assessed as growth inhibition after 24 hr by agar dilution method; assay type: functional
[14] = system: Vibrio cholerae; experiment: Antibacterial activity against Vibrio cholerae 759 clinical isolate assessed as growth inhibition after 24 hr by agar dilution method; assay type: functional
[15] = system: Pseudomonas aeruginosa; experiment: Antibacterial activity against Pseudomonas aeruginosa 71 clinical isolate assessed as growth inhibition after 24 hr by agar dilution method; assay type: functional
[16] = system: Escherichia coli; experiment: Antibacterial activity against Escherichia coli 319 clinical isolate assessed as growth inhibition after 24 hr by agar dilution method; assay type: functional
[17] = system: Shigella dysenteriae; experiment: Antibacterial activity against Shigella dysenteriae 15 clinical isolate assessed as growth inhibition after 24 hr by agar dilution method; assay type: functional
[18] = system: Staphylococcus aureus; experiment: Antibacterial activity against Staphylococcus aureus 29737 clinical isolate assessed as growth inhibition after 24 hr by agar dilution method; assay type: functional
[19] = system: Candida tropicalis; experiment: Antifungal activity against Candida tropicalis clinical isolate assessed as growth inhibition at 1 mg/ml after 96 hr by NCCLS agar diffusion method; assay type: functional; conditions: read-out: DIZ
[20] = system: Candida albicans; experiment: Antifungal activity against Candida albicans clinical isolate assessed as growth inhibition at 1 mg/ml after 96 hr by NCCLS agar diffusion method; assay type: functional; conditions: read-out: DIZ
[21] = system: Candida albicans; experiment: Antifungal activity against Candida albicans clinical isolate assessed as growth inhibition after 96 hr by agar dilution method; assay type: functional
[22] = system: Escherichia coli; experiment: Antibacterial activity against Escherichia coli 319 clinical isolate assessed as morphological changes at MIC after 24 hr by scanning electron microscopic analysis; assay type: functional, organism-based
[23] = system: Vibrio cholerae; experiment: Bactericidal activity against Vibrio cholerae 759 clinical isolate assessed as reduction of viable CFU count at MIC measured up to 48 hr relative to untreated control; assay type: functional, organism-based
[24] = system: Escherichia coli; experiment: Bactericidal activity against Escherichia coli 319 clinical isolate assessed as reduction of viable CFU count at MIC measured up to 48 hr relative to untreated control; assay type: functional, organism-based

Compound | growth inhibition (GI) [1] | zone of inhibition at 1000 µg/mL [2] | growth inhibition (GI) [3] | growth inhibition (GI) [4] | growth inhibition (GI) [5] | growth inhibition (GI) [6] | zone of inhibition at 1000 µg/mL [7] | zone of inhibition at 1000 µg/mL [8] | growth inhibition (GI) [2] | zone of inhibition at 1000 µg/mL [3] | growth inhibition (GI) [7] | growth inhibition (GI) [8] | further results
COc1cc(C2(c3ccc(N)c(OC)c3)C(=O)c3ccccc3C2=O)ccc1N | inactive | 8 mm | inactive | inactive | inactive | inactive | 7 mm | 7 mm | – | – | – | – | –
Nc1c(Cl)cc(Cl)cc1C1(Nc2ccc(Cl)cc2Cl)C(=O)c2ccccc2C1=O | inactive | – | – | inactive | – | inactive | 7 mm | 7 mm | inactive | 8 mm | – | – | zone of inhibition at 1000 µg/mL [5]: 7 mm; zone of inhibition at 1000 µg/mL [9]: 8 mm; zone of inhibition at 1000 µg/mL [10]: 8 mm; MIC [11]: 1000 µg/mL (≈ 2150 µM); MIC [12]: 1000 µg/mL (≈ 2150 µM)
Cc1cc(C2(c3cc(C)c(N)c(C)c3)C(=O)c3ccccc3C2=O)cc(C)c1N | inactive | 9 mm | inactive | inactive | inactive | inactive | – | – | – | – | inactive | inactive | –
Nc1ccc(C2(c3ccc(N)c([N+](=O)[O-])c3)C(=O)c3ccccc3C2=O)cc1[N+](=O)[O-] | inactive | – | inactive | inactive | inactive | – | – | – | inactive | – | inactive | inactive | zone of inhibition at 1000 µg/mL ([6]; Staphylococcus aureus, 29737, 24 h, read-out: DIZ): 8 mm
Cc1ccc(NC2(c3cc(C)c(C)cc3N)C(=O)c3ccccc3C2=O)cc1C | inactive | – | – | inactive | inactive | inactive | – | – | inactive | 7 mm | inactive | inactive | –
GENTAMICIN | – | – | – | – | – | – | – | – | – | – | – | – | MIC [13]: 250 µg/mL; MIC [14]: 2000 µg/mL; MIC [15]: 4000 µg/mL; MIC [16]: 500 µg/mL; MIC [17]: 2000 µg/mL; MIC [18]: 1000 µg/mL
CNc1ccc(C2(c3ccc(NC)cc3)C(=O)c3ccccc3C2=O)cc1 | inactive | – | – | inactive | inactive | inactive | 7.5 mm | 8 mm | inactive | 7 mm | – | – | –
Cc1cc(C2(c3cc(C)c(N)cc3F)C(=O)c3ccccc3C2=O)c(F)cc1N | inactive | 7 mm | – | inactive | inactive | inactive | 7 mm | – | – | 7 mm | – | inactive | –
Cc1cc(C2(c3ccc(N)c(C)c3)C(=O)c3ccccc3C2=O)ccc1N | inactive | 7 mm | – | inactive | – | inactive | – | 8 mm | – | 7 mm | inactive | – | zone of inhibition at 1000 µg/mL [5]: 7 mm; zone of inhibition at 1000 µg/mL [19]: 8 mm; zone of inhibition at 1000 µg/mL [20]: 10 mm; zone of inhibition at 1000 µg/mL [10]: 7.6 mm; MIC [11]: 2000 µg/mL (≈ 5610 µM); MIC [21]: 1000 µg/mL (≈ 2810 µM); MIC [12]: 1000 µg/mL (≈ 2810 µM); Activity [22]: Active; Activity [23]: Active; Activity [24]: Active
